Assays:
[1] = system: Propionibacterium acnes CIP A179; assay: Minimal inhibitory concentration (CMI) in solid medium against Propionibacterium acnes; format: cell-based; details: single active; Wilkins-Chalgren agar, 18h at 37°C, anaerobic
Method: La détermination de la CMI des actifs à évaluer vis-à-vis de Propionibacterium acnes consiste, dans un premier temps, à préparer une gamme comportant neuf dilutions des actifs à tester. Chaque dilution est ensuite déposée en boîte de Pétri puis recouverte de gélose Wilkins-Chalgren. Après homogénéisation puis solidification, chacune des boîtes est inoculée avec une suspension calibrée (10^7 UFC/mL) de P acnes (dépôt par strie), puis les boîtes sont incubées 18h à 37°C en anaérobiose. La souche utilisée est le Propionibacterium acnes CIP A179 (origine = glande sébacée (1946), source CRBIP, Institut Pasteur, Paris).
La préparation des géloses s'effectue à J1 en ajoutant 2 mL d'eau osmosée stérile dans une boîte de Pétri (témoin négatif) ou 2 ml de chaque dilution des gammes d'actifs 10 fois concentré et 18 mL de milieu gélosé. Après solidification à température ambiante, les boites sont séchées 30 min à 37°C puis ensemencées avec la suspension bactérienne calibrée (10^7 UFC/mL) à l'aide d'une ose calibrée de 10 µL permettant de réaliser un dépôt correspondant à environ 10^4 UFC).
La lecture des boites est effectuée après 18 heures de culture à 37°C permettant de déterminer la CMI correspondant à la plus faible concentration d'actif(s) qui inhibe toute culture visible de P acnes. La présence de 1 à 3 colonies n'est pas prise en considération.
Les produits évalués sont le S (Sytenol®A, Sytheon), Z (Zinc gluconate, Azelis), seuls et les associations S + M (mannitol, IMCD/SPCI) + G (extrait glycolique de Ginkgo biloba, Greentech) et S + M + G + Z.
Le Sytenol®A qui présente un caractère lipophile est dilué dans le DMSO (solution mère à 10%) avant d'être redilué dans l'eau osmosée. Le zinc, le mannitol et l'extrait de Ginkgo sont directement dilués dans l'eau osmosée.
Les essais ont également compris des contrôles en présence du solvant DMSO ayant servi à la solubilisation de S dans l'eau.

[2] = Protection of squalene against H2O2-induced oxidation (GC-MS assay of remaining squalene); details: for Indice de protection (%): squalene + H2O2 for 1 hour
Method: Le but de l'étude est d'évaluer les effets d'un méroterpène, en l'occurrence le Sytenol®A, sur l'oxydation du squalène induite par du peroxyde d'hydrogène (H2O2).
Le squalène (Sigma, St Quentin Fallavier) est mis en contact avec une quantité définie de peroxyde d'hydrogène pendant 1 heure pour induire son oxydation, en présence ou non du Sytenol®A à 0.1%, 0.25% ou 0.5% (P/V). Un contrôle est réalisé avec un anti-oxydant lipophile de référence, la vitamine E, testée à 0,16% (3,8 mM), correspondant à une concentration équimolaire de Sytenol®A à 0,1%.
A l'issue de l'oxydation, une étape d'extraction est réalisée, puis les échantillons sont analysés par chromatographie en phase gazeuse couplée à une analyse par spectrométrie de masse (GC-MS). Le squalène est dosé grâce à une gamme étalon (10 µg/ml à 2500 µg/ml). La quantité de squalène oxydée est déduite des dosages du squalène. Plus les quantités de squalène dosées sont importantes, moins il a été oxydé et inversement.

## Zinc gluconate
[1]
  CMI: 0.12%

## vitamine E
[2]; tested at 0.16% (3.8mM)
  Indice de protection (%): 15.17%

## C=C[C@@](C)(/C=C/c1ccc(O)cc1)CCC=C(C)C [Sytenol®A, bakuchiol]
[2]; equimolar concentration of 3,8 mM
  fois plus efficace que la vitamine E en termes de protection de l'oxydation du squalène: 2 fois
[2]; tested at 0.1% (3.9mM)
  Indice de protection (%): 30.02%
[2]; tested at 0.25% (9.75 mM)
  Indice de protection (%): 37.12%

## O=C(OOC(=O)c1ccccc1)c1ccccc1 [Peroxyde de Benzoyle, peroxyde de benzoyle]
[1]
  CMI: 0.008%

From patent EP2583662A1, “Composition comprising a meroterpen to manage oily skin with tendency to develop acne” (priority 2011, dated 2013)
